Paper PMC4551797 (PLoS ONE, 2015)
Read-outs that look alike come from different tables or passages of the source.

Columns and labels:
GPR120 = biological target: T1, GPR120 (Homo sapiens, UniProt Q5NUL3); assay: Selectivity: enteroendocrine GPCR GPR120
T1 sequence (Q5NUL3 1-361): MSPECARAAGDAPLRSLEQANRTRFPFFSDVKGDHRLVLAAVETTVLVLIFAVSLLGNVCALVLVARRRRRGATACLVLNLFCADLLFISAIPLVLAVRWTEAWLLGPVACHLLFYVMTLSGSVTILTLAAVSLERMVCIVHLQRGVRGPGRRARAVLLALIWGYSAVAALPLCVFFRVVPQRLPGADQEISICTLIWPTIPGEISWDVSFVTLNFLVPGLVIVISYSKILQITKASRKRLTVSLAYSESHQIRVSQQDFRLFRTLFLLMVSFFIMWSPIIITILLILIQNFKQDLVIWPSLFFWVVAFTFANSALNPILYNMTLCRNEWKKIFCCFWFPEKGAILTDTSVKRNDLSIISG

GPR119 = biological target: T2, GPR119 (Homo sapiens, UniProt Q8TDV5); assay: Selectivity: enteroendocrine GPCR GPR119
T2 sequence (Q8TDV5 1-335): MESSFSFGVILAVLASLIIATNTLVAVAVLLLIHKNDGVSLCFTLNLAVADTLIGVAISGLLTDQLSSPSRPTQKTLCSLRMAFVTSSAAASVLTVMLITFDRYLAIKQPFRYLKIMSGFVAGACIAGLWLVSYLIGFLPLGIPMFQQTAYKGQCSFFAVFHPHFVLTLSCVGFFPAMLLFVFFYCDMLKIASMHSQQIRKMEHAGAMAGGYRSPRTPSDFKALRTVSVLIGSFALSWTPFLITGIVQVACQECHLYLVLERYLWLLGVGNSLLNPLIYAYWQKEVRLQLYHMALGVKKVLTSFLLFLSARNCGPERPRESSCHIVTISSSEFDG

[1] = CEREP mini panel (56 assays: enzymes, receptors, ion channels); details: read-out: IC50s for 56 assays in a CEREP mini panel
[2] = Plasma compound levels after oral dosing (LC-MS/MS); details: C57BL/6, mouse
Tgr5 KO mice = assay: Three-day study on GLP-1, PYY and bile weight in Tgr5 KO mice; details: 100 mg/kg oral BID 3 days, 30 min after last dose
Protocol: C57BL/6 mice, Tgr5 KO mice, or their wild-type littermate controls were orally dosed with vehicle or compounds twice per day for 3 days, with overnight fasting performed on the evening of day 2. On the morning of day 3, animals were dosed orally with compounds and then euthanized by CO2 asphyxiation at 30 minutes after the fifth dose. Plasma was collected for analysis of GLP-1 (X-36) amide as mentioned above, followed immediately by incision into the abdominal cavity to remove and weigh bile from the gallbladder.

mouse TGR5 = biological target: T3, mouse TGR5 (Mus musculus, UniProt Q80SS6); assay: cAMP production in STC-1 enteroendocrine cells (endogenous TGR5); assay type: cell-based; design: in cells with endogenous levels of receptor; host or cells: STC-1 (mouse enteroendocrine); details: for EC50: STC-1 cells
T3 sequence (Q80SS6 1-329): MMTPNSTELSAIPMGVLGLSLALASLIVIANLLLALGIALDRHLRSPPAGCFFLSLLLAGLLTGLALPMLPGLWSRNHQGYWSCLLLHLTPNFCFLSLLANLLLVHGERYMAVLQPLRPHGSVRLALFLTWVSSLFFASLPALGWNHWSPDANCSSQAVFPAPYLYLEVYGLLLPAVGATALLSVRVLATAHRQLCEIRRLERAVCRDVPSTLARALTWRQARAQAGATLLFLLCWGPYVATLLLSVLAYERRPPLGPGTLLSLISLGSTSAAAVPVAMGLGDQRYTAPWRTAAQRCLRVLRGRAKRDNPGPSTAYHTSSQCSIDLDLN
Protocol: Both were maintained in Dulbecco’s modified Eagle’s medium (DMEM) containing 10% fetal bovine serum (FBS) and penicillin /streptomycin. Mouse STC-1 cells were obtained from ATCC under agreement with the Cold Spring Harbor Laboratories and maintained in DMEM containing 10% FBS and penicillin /streptomycin. […] NCI-H716 cells were cultured in 96 well plate coated with Matrigel (BD). After 72 hours, cAMP production stimulated with TGR5 agonists was measured using HTRF cAMP assay kit (CISBIO). The level of cAMP in suspensions of STC-1 cells stimulated with increasing concentrations of TGR5 agonists was also determined. After 2 day-culturing, GLP-1 secretion in Matrigel-differentiated NCI-H716 or STC-1 cells was induced by increasing concentrations of TGR5 agonists. The production of GLP-1 was determined using a GLP-1 Assay (7–36) amide kit (Mesoscale Discovery) following the manufacturer’s instructions. For both cAMP and GLP-1, the maximal response for each compound was set to 100% in each cell line.

## CC(=O)N1CCC(C(C)N(C(=O)COc2cccc3sc4nc(C)cn4c23)c2ccc(F)cc2)CC1 (stereo not drawn) [compound 18]
GPR120
  EC50: > 125000 nM
GPR119
  EC50: > 125000 nM
[1]
  IC50: > 10000 nM
[2]; 3 mg/kg
  AUC(0-t): 0.049 µM·h
  Cmax: 59 nM
[2]; 10 mg/kg
  AUC(0-t): 0.507 µM·h
  Cmax: 348 nM
[2]; 30 mg/kg
  AUC(0-t): 1.52 µM·h
  Cmax: 2510 nM
[2]; 100 mg/kg
  AUC(0-t): 14.3 µM·h
  Cmax: 14800 nM
  Tmax: 15 min
Tgr5 KO mice
  GLP-1: no detectable increase
  PYY: no detectable increase
  bile weight: no detectable increase
Mouse TGR5; read-out: EC50, cAMP production
  EC50: 580 nM
Mouse TGR5; unit inferred, x-axis in nM, read-out: EC50 STC-1 (Fig 2C inset, cAMP)
  EC50: 580 nM
Mouse TGR5; STC-1 versus NCI-H716 cells
  potency on the mouse versus the human TGR5 receptor: more than 5 fold
